Experimental data as given in the NIST ThermoML archive (doi:10.1016/j.jct.2004.10.005).
Numbers after ± are expanded uncertainties.

Assay: Molar enthalpy of transition or fusion

Molar enthalpy of transition or fusion (Crystal 1, DSC): 3.97 ± 0.21 kJ/mol
Molar enthalpy of transition or fusion (Crystal 2, Adiabatic calorimetry): 7.42 ± 0.25 kJ/mol
Molar enthalpy of transition or fusion (Crystal 2, DSC): 7.51 ± 0.29 kJ/mol
Molar enthalpy of transition or fusion (Crystal 3, Adiabatic calorimetry): 1.387 ± 0.01 kJ/mol
Molar enthalpy of transition or fusion (Crystal 4, Adiabatic calorimetry): 0.00144 ± 0.0026 kJ/mol
Compound: BrC12CC3CC(CC(C3)C1)C2 [1-bromotricyclo[3.3.1.1(3,7)]decane]
